From ChEMBL document CHEMBL2086238, “Identification of ETP-46321, a potent and orally bioavailable PI3K α, δ inhibitor” (Bioorg Med Chem Lett, 2012)

Experiments:
[1] = molecular target: Phosphatidylinositol 4,5-bisphosphate 3-kinase catalytic subunit alpha isoform (Homo sapiens, UniProt P42336); test: Inhibition of PI3Kalpha in human U2OS cells assessed as inhibition of AKT Ser 473 phosphorylation by Western blot; format: cell-based
[2] = Stability in human liver microsomes at 1 uM incubated for 15 mins; format: ADME, Microsome; conditions: read-out: Stability
[3] = Stability in mouse liver microsomes at 1 uM incubated for 15 mins; format: ADME, Microsome; conditions: read-out: Stability
CYP2C9 = CYP2C9 (Homo sapiens, UniProt P11712); test: Inhibition of CYP2C9 at 10 uM; format: ADME
CYP2D6 = CYP2D6 (Homo sapiens, UniProt P10635); test: Inhibition of CYP2D6 at 10 uM; format: ADME
CYP3A4 = CYP3A4 (Homo sapiens, UniProt P08684); test: Inhibition of CYP3A4 at 10 uM; format: ADME
[4] = molecular target: Dual specificity tyrosine-phosphorylation-regulated kinase 1A (Homo sapiens) (UniProt Q13627); test: Inhibition of DYRK1A at 1 uM
[5] = molecular target: Insulin-like growth factor 1 receptor (Homo sapiens) (UniProt P08069); test: Inhibition of IGF1R at 1 uM
[6] = molecular target: T1, Inhibitor of nuclear factor kappa-B kinase subunit beta (Homo sapiens) (UniProt O14920); test: Inhibition of IKKbeta at 1 uM
T1 sequence (whole entry): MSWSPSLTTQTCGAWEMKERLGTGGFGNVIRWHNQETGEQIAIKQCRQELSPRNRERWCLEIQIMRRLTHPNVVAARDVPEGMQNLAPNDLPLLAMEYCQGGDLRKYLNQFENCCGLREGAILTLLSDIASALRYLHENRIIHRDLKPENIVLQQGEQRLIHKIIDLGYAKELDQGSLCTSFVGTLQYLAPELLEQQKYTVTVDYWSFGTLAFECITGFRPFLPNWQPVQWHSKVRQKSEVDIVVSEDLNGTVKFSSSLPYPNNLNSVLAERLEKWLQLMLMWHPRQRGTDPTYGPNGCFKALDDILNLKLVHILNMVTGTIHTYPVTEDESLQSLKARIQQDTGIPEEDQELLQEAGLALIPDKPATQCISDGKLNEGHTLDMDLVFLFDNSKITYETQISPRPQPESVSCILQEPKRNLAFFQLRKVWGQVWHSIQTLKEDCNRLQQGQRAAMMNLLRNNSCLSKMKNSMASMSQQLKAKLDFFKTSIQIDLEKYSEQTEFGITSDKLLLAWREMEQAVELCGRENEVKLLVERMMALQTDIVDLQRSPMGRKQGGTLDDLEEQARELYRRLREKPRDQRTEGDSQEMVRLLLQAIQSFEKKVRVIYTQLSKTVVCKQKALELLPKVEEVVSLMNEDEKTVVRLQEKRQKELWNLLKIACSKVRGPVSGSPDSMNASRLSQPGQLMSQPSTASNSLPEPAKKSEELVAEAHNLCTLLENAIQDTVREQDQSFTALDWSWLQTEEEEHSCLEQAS

[7] = molecular target: Insulin receptor (Homo sapiens) (UniProt P06213); test: Inhibition of INSR at 1 uM
[8] = molecular target: Mast/stem cell growth factor receptor Kit (Homo sapiens) (UniProt P10721); test: Inhibition of KIT at 1 uM
[9] = molecular target: Serine/threonine-protein kinase pim-1 (Homo sapiens) (UniProt P11309); test: Inhibition of PIM1 at 1 uM
[10] = molecular target: Ribosomal protein S6 kinase alpha-1 (Homo sapiens) (UniProt Q15418); test: Inhibition of RPS6KA1 at 1 uM
[11] = system: Serine/threonine-protein kinase B-raf (Homo sapiens), P15056 [V600E]; test: Inhibition of BRAF V600E mutant at 5 uM
[12] = molecular target: Casein kinase I isoform alpha (Homo sapiens) (UniProt P48729); test: Inhibition of CK1alpha1 at 5 uM
[13] = molecular target: Focal adhesion kinase 1 (Homo sapiens) (UniProt Q05397); test: Inhibition of FAK at 5 uM
[14] = molecular target: Insulin receptor (Homo sapiens) (UniProt P06213); test: Inhibition of INSR at 5 uM
[15] = molecular target: Tyrosine-protein kinase JAK2 (Homo sapiens) (UniProt O60674); test: Inhibition of JAK2 at 5 uM
[16] = molecular target: Mitogen-activated protein kinase 8 (Homo sapiens) (UniProt P45983); test: Inhibition of JNK1 at 5 uM
[17] = molecular target: Mast/stem cell growth factor receptor Kit (Homo sapiens) (UniProt P10721); test: Inhibition of KIT at 5 uM
[18] = molecular target: T2, Serine/threonine-protein kinase 4 (Homo sapiens) (UniProt Q13043); test: Inhibition of MST1 at 5 uM
T2 sequence (whole entry): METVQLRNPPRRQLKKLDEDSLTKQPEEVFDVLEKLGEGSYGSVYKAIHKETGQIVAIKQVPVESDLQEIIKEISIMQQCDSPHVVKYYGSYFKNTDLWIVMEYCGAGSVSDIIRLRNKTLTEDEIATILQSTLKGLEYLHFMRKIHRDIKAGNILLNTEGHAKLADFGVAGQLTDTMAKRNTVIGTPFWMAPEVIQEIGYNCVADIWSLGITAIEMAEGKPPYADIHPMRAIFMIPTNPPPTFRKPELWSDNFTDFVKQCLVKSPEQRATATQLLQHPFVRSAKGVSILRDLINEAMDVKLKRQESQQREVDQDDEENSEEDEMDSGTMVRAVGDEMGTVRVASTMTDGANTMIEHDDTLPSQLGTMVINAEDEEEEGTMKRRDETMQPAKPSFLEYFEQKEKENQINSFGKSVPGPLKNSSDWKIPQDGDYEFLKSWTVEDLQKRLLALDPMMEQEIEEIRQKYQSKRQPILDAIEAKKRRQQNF

[19] = molecular target: Serine/threonine-protein kinase PAK 1 (Homo sapiens) (UniProt Q13153); test: Inhibition of PAK1 at 5 uM
[20] = molecular target: Serine/threonine-protein kinase pim-1 (Homo sapiens) (UniProt P11309); test: Inhibition of PIM1 at 5 uM
[21] = molecular target: Ribosomal protein S6 kinase alpha-1 (Homo sapiens) (UniProt Q15418); test: Inhibition of RPS6KA1 at 5 uM

Sequence of Phosphatidylinositol 4,5-bisphosphate 3-kinase catalytic subunit alpha isoform (P42336 whole entry, canonical isoform): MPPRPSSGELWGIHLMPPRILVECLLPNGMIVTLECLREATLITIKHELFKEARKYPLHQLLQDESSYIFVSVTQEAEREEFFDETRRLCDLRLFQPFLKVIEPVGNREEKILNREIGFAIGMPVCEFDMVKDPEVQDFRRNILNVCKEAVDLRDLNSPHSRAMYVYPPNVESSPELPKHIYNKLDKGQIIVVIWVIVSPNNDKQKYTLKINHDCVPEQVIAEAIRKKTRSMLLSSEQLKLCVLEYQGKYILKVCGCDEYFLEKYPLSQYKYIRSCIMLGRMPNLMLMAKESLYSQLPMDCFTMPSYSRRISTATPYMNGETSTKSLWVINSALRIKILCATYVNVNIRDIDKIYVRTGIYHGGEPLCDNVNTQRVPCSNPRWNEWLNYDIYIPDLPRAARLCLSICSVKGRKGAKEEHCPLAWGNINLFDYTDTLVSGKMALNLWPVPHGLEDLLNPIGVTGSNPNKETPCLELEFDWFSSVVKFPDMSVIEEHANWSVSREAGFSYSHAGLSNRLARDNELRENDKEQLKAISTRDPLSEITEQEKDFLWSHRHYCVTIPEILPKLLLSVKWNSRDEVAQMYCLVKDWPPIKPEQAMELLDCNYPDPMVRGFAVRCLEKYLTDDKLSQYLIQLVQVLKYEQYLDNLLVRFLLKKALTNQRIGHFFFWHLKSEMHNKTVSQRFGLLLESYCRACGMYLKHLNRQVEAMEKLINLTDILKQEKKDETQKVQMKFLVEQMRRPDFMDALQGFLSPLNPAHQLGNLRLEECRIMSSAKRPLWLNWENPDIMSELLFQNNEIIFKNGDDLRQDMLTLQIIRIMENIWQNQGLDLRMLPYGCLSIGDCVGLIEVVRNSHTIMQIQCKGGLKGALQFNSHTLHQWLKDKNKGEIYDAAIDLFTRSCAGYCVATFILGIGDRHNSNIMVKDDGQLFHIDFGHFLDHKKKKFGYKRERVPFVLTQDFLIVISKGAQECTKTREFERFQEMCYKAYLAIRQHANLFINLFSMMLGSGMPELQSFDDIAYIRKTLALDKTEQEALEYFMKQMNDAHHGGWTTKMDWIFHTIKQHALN
Sequence of Insulin receptor (Homo sapiens) (P06213 28-758 limits assumed): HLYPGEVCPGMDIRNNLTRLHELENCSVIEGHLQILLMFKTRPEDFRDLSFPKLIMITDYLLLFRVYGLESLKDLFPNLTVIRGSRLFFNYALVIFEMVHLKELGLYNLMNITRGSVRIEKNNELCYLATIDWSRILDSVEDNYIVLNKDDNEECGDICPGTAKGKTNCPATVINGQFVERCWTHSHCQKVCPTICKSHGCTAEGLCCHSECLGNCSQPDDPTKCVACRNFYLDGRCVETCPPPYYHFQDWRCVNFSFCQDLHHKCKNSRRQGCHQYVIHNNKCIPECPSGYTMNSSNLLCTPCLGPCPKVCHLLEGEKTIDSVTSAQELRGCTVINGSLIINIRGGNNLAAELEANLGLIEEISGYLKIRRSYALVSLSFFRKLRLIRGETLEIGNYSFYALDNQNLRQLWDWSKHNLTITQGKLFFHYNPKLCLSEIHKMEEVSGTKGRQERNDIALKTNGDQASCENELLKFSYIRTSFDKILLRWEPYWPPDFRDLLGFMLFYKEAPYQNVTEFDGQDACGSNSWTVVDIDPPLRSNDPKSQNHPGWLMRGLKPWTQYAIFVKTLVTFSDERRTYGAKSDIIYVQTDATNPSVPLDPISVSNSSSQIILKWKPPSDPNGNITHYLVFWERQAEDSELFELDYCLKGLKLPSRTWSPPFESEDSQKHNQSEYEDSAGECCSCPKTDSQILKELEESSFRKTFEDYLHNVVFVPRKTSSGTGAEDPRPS
Sequence of Insulin receptor (Homo sapiens) (P06213 763-1382 limits assumed): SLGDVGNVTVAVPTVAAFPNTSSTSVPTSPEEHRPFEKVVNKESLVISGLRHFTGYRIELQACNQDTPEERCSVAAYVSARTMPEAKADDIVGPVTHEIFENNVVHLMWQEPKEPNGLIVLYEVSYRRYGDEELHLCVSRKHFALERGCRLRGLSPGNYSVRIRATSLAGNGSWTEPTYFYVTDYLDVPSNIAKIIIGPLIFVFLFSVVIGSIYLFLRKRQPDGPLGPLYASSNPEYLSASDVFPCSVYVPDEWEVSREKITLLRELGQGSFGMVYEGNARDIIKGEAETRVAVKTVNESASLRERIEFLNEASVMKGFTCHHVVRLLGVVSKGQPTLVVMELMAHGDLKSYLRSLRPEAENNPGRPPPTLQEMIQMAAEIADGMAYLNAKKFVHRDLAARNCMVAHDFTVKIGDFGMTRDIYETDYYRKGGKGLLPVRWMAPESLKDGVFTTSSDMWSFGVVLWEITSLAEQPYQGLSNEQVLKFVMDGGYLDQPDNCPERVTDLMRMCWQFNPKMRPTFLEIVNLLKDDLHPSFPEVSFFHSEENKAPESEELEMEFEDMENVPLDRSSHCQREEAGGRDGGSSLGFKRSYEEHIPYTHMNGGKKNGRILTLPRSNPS
Sequence of CYP3A4 (P08684 whole entry): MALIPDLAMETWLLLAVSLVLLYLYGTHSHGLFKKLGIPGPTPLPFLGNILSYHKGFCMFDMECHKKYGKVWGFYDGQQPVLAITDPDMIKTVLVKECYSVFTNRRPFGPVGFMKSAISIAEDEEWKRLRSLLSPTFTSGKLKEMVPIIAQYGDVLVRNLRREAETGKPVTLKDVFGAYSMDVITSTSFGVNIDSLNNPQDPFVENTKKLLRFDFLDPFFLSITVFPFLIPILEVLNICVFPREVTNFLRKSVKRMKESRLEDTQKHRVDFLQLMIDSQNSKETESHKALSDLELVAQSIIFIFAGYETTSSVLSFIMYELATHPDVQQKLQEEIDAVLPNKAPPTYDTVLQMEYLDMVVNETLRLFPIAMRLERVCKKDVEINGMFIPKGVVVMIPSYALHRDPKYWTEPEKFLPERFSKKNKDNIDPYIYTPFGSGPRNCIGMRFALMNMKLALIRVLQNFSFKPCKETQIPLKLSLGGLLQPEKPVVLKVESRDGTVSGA
Sequence of Mast/stem cell growth factor receptor Kit (Homo sapiens) (P10721 whole entry): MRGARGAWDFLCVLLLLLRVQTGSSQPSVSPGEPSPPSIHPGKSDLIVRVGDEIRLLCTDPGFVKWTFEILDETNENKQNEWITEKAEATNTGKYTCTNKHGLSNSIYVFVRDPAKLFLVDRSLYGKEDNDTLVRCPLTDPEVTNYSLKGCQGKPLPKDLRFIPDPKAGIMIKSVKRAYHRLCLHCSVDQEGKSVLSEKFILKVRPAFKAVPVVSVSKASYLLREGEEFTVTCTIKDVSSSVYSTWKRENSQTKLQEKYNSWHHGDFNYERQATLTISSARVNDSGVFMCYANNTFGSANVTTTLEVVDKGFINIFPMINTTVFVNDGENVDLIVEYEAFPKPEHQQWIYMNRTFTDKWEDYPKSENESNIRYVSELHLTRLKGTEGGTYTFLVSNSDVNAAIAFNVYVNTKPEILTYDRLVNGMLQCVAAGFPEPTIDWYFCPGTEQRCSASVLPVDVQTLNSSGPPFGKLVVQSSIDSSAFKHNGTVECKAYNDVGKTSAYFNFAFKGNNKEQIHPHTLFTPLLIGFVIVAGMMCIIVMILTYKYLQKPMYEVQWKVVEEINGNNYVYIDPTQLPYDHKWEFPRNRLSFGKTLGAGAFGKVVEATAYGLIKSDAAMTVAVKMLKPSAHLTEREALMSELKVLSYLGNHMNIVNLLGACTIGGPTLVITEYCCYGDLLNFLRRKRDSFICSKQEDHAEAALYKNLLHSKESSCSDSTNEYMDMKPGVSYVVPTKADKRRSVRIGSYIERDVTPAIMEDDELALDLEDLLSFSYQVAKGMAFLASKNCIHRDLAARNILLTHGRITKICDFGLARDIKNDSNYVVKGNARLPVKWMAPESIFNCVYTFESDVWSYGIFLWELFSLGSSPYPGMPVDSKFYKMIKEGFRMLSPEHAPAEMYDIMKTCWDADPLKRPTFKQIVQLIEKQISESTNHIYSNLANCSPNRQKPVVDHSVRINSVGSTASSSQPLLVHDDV
Sequence of CYP2C9 (P11712 whole entry): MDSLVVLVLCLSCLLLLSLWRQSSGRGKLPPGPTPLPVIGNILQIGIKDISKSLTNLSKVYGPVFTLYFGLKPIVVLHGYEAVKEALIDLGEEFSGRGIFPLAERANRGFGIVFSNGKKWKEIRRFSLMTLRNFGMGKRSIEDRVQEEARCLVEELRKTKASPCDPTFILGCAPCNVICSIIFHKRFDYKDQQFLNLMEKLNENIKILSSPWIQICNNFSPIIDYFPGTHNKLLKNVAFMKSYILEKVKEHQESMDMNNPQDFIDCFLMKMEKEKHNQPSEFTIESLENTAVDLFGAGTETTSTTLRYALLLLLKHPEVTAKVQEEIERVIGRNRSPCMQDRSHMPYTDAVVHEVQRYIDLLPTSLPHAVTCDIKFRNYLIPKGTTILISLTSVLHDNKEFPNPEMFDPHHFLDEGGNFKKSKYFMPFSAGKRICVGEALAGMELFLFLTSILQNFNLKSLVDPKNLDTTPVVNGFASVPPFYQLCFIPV
Sequence of Casein kinase I isoform alpha (Homo sapiens) (P48729 2-337 limits assumed): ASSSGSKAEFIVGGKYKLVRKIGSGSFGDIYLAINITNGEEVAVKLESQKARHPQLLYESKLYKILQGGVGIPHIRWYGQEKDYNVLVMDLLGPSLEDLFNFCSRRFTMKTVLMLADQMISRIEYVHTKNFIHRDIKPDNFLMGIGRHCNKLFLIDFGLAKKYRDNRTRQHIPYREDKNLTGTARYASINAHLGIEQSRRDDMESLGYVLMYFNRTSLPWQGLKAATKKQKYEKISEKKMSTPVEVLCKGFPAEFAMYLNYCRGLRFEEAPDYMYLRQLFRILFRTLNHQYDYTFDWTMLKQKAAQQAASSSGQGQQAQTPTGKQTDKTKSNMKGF
Sequence of Serine/threonine-protein kinase pim-1 (Homo sapiens) (P11309 whole entry, looked up): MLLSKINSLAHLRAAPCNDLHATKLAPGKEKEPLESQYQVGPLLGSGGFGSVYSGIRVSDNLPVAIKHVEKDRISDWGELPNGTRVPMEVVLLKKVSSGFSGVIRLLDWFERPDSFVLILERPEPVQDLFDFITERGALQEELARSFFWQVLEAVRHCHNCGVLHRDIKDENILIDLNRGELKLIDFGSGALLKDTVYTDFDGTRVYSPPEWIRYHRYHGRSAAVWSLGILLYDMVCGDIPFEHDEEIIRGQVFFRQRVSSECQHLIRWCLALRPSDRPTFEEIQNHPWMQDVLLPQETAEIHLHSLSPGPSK

remaining at 0.25 h, 1 µM [2] [%]	remaining at 0.25 h, 1 µM [3] [%]	inhibition [4] [%]	inhibition [5] [%]	inhibition [6] [%]	inhibition [7] [%]	inhibition [8] [%]	inhibition [9] [%]	inhibition [10] [%]	inhibition [11] [%]	inhibition [12] [%]	inhibition [13] [%]	inhibition [14] [%]	inhibition [15] [%]	inhibition [16] [%]	inhibition [17] [%]	inhibition [18] [%]	inhibition [19] [%]	inhibition [20] [%]	inhibition [21] [%]	SMILES	further results
86	91	< 30	< 30	< 30	< 30	< 30	< 30	< 30	< 30	< 30	< 30	< 30	< 30	< 30	< 30	< 30	< 30	< 30	< 30	CS(=O)(=O)N1CCN(Cc2cn3c(Cl)c(-c4cnc(N)nc4)nc(N4CCOCC4)c3n2)CC1	IC50 [1]: 5.2 nM; inhibition at 10 µM (CYP2C9): < 30%; inhibition at 10 µM (CYP2D6): < 30%; inhibition at 10 µM (CYP3A4): < 30%
–	–	< 30	< 30	< 30	< 30	< 30	< 30	< 30	< 30	< 30	< 30	< 30	< 30	< 30	< 30	< 30	< 30	< 30	< 30	Cc1nc(N)ncc1-c1cn2cc(CN3CCN(S(C)(=O)=O)CC3)nc2c(N2CCOCC2)n1	–
70	43	< 30	< 30	< 30	< 30	< 30	< 30	< 30	< 30	< 30	< 30	< 30	< 30	< 30	< 30	< 30	< 30	< 30	< 30	CS(=O)(=O)N1CCN(Cc2nc3c(N4CCOCC4)nc(-c4cnc(N)nc4)cn3c2Br)CC1	IC50 [1]: 8.1 nM; inhibition at 10 µM (CYP2C9): < 30%; inhibition at 10 µM (CYP2D6): < 30%; inhibition at 10 µM (CYP3A4): < 30%

The next lines start with the molecule.

SMILES	remaining at 0.25 h, 1 µM [2] [%]	remaining at 0.25 h, 1 µM [3] [%]	inhibition [4] [%]	inhibition [5] [%]	inhibition [6] [%]	inhibition [7] [%]	inhibition [8] [%]	inhibition [9] [%]	inhibition [10] [%]	inhibition [11] [%]	inhibition [12] [%]	inhibition [13] [%]	inhibition [14] [%]	inhibition [15] [%]	inhibition [16] [%]	inhibition [17] [%]	inhibition [18] [%]	inhibition [19] [%]	inhibition [20] [%]	inhibition [21] [%]	further results
Cc1c(CN2CCN(S(C)(=O)=O)CC2)nc2c(N3CCOCC3)nc(-c3cnc(N)nc3)cn12	88	80	< 30	< 30	< 30	< 30	< 30	< 30	< 30	< 30	< 30	< 30	< 30	< 30	< 30	< 30	< 30	< 30	< 30	< 30	IC50 [1]: 15.4 nM; inhibition at 10 µM (CYP2C9): < 30%; inhibition at 10 µM (CYP2D6): < 30%; inhibition at 10 µM (CYP3A4): < 30%
CS(=O)(=O)N1CCN(Cc2cn3cc(-c4cnc(N)nc4)nc(N4CCOCC4)c3n2)CC1	93	88	< 30	< 30	< 30	< 30	< 30	< 30	< 30	< 30	< 30	< 30	< 30	< 30	< 30	< 30	< 30	< 30	< 30	< 30	inhibition at 10 µM (CYP2C9): < 30%; inhibition at 10 µM (CYP2D6): < 30%; inhibition at 10 µM (CYP3A4): < 30%
